This note sets out measurements from patent US12202829B2, “Heterocyclic compound” (FIMECS, Inc., priority 2018, dated 2025).

One assay concerns the target T1, XIAP (Homo sapiens, UniProt P98170).
T1 construct: endogenous in cells; host or cells: THP1 (ATCC)
Kind of assay: In vitro degradation activity of XIAP in THP1 cells, western blotting. The assay is classed as cell-based. Particulars: test compound 10 μM, 24 hours, relative to DMSO control set at 100. On the procedure:
In vitro degradation activities of XIAP of the example compounds were evaluated by the following method. THP1 cells were purchased from ATCC and cultured in RPMI-1640 supplemented with 10% FBS and 1% penicillin/streptomycin. THP1 cells were seeded at a density of 1×10^6 cells/well in 24-well plate and treated with DMSO control or Example 86 and 87 (0.001, 0.01, 0.1, 1, 10 μM), and then incubated for 24 hours. The cells were collected and lysed on ice for 30 minutes in lysis buffer (0.5% Triton X-100, 0.01 M Tris-HCl (pH 8.0), 0.15 M NaCl) containing a protease inhibitor cocktail (Sigma-Aldrich). The lysates were sonicated for 30 sec ON/30 sec OFF for ten cycles and centrifuged for 15 minutes at 15 krpm at 4° C. Protein concentrations were determined by the BCA assay (Thermo Fisher). Proteins were separated with Nu-PAGE (Thermo Fisher) and analyzed by western blotting (standard protocol) using antibodies of anti-XIAP (Cell Signaling #14334), and β-actin (Sigma #A2066). Bands (luminescent intensities) were quantified using LAS-4000 luminescent image analyzer (Fuji). The values of XIAP were corrected by the internal control value of β-actin and analyzed relative to DMSO control set at 100. The remaining protein rate (%) are described as A≤25%, 25%<B≤50%, 50%<C≤75%, D>75% when the concentration of the test compound is 10 μM.

The target of assay [1] is T2, human XIAP_BIR3 domain purified protein (Homo sapiens, UniProt P98170).
T2 construct: purchased R & D
T2 sequence (P98170 252-356 limits assumed): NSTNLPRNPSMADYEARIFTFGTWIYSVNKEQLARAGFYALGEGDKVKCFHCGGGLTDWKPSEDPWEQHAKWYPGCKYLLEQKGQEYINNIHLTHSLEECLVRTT
Briefly: XIAP binding inhibitory activity, HTRF method with b-Smac ligand. The note with it: for inhibition at 3 µM: test compound 3 μM, first symbol of the cell, read-out: XIAP binding inhibition rate when the concentration of the test compound is 3 μM; for pIC50: second symbol of the cell, read-out: XIAP binding 50% inhibitory concentration (IC50 value). Summed up: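 HTRF competition: human XIAP BIR3 and C-terminally biotinylated Smac peptide AVPIAQK, each diluted to 90 nM before addition, in HEPES pH 7.5 buffer with NaCl, BSA, Triton X-100. Eu-cryptate anti-His/streptavidin-XL665 detection after ≥4 h at room temperature; inhibition % from 665/615 ratio versus no-compound control.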

The target of a further assay is T3, BCR-ABL (Homo sapiens, UniProt P00519).
T3 construct: BCR N-terminal part (natural fusion partner, P11274); endogenous in cells; host or cells: K562 (ECACC); the other entry of the earlier key: BCR (P11274, Breakpoint cluster region protein)
T3 sequence (P00519 with tags, fused parts or gaps): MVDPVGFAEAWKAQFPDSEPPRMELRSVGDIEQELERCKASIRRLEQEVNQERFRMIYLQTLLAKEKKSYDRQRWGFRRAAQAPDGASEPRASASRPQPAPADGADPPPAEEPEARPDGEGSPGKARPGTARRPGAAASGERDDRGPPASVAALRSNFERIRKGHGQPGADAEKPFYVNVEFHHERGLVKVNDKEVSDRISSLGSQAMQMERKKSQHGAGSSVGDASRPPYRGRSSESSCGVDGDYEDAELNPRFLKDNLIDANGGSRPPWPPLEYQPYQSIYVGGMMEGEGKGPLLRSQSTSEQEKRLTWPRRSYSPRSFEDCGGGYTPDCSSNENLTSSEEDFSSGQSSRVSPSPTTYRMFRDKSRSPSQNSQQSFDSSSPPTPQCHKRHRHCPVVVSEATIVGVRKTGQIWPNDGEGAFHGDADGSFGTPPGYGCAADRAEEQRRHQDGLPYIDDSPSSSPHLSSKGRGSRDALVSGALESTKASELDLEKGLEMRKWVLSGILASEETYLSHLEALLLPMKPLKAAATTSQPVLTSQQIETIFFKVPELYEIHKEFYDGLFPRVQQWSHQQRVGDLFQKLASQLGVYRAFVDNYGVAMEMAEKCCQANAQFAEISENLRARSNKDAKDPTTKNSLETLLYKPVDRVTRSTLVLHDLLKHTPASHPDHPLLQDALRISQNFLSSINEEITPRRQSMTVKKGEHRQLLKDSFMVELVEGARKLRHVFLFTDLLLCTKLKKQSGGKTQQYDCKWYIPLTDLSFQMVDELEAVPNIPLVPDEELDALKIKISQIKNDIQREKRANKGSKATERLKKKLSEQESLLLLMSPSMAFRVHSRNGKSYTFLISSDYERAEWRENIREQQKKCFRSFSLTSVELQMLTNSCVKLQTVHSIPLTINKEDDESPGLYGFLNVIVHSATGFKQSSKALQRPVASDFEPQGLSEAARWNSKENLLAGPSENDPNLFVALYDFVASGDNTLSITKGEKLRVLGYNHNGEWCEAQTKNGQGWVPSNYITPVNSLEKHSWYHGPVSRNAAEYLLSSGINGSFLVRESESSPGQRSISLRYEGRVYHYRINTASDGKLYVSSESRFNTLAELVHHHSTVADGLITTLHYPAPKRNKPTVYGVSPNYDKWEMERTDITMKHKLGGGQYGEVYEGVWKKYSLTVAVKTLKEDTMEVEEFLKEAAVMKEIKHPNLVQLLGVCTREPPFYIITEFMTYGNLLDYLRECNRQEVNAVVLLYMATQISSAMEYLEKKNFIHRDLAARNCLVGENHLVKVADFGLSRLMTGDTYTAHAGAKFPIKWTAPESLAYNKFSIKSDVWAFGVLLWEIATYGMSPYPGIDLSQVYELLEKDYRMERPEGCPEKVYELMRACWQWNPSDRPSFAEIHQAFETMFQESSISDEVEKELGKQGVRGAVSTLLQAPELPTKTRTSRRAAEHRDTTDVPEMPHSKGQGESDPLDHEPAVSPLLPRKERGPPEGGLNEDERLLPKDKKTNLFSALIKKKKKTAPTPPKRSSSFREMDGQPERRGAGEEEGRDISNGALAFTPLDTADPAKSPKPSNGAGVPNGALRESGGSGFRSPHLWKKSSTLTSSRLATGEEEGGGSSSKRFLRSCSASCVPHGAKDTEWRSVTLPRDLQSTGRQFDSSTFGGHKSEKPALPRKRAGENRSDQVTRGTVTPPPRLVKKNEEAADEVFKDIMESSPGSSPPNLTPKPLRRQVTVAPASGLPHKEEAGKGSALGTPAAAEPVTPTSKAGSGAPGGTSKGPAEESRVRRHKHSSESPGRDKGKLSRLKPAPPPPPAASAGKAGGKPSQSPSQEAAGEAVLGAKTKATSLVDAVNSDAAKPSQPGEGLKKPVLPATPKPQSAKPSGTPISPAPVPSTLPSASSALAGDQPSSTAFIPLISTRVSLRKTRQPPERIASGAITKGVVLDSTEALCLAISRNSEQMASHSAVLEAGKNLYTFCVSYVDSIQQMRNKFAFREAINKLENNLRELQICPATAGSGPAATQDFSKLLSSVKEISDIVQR
Kind of assay: In vitro degradation activity of BCR-ABL in K562 cells, western blotting. Type of assay: cell-based. The note with it: test compound 30 μM, 24 hours, relative to DMSO control set at 100. How it is done:
In vitro degradation activities of BCR-ABL of the example compounds were evaluated by the following method. K562 cells were purchased from ECACC and cultured in RPMI-1640 supplemented with 10% FBS and 1% penicillin/streptomycin. K562 cells were seeded at a density of 1×10^6 cells/well in 24-well plate and treated with DMSO control or Example 80 and 81 (1, 3, 10, 30 μM), and then incubated for 24 hours. The cells were collected and lysed on ice for 30 minutes in lysis buffer (0.5% Triton X-100, 0.01 M Tris-HCl (pH 8.0), 0.15 M NaCl) containing a protease inhibitor cocktail (Sigma-Aldrich). The lysates were vortexed for 2 minutes and centrifuged for 15 minutes at 15 krpm at 4° C. Protein concentrations were determined by the BCA assay (Thermo Fisher). Proteins were separated with Nu-PAGE (Thermo Fisher) and analyzed by western blotting (standard protocol) using antibodies of anti-BCR (Cell Signaling #3902), and R-actin (Sigma #A2066). Bands (luminescent intensities) were quantified using LAS-4000 luminescent image analyzer (Fuji). The values of BCR-ABL were corrected by the internal control value of R-actin and analyzed relative to DMSO control set at 100. The remaining protein rate (%) are described as A≤25%, 25%<B≤50%, 50%<C≤75%, D>75% when the concentration of the test compound is 30 μM.
(A western blot detects proteins with antibodies after separation by electrophoresis.)

The structures appear in SMILES notation. pIC50: −log10 of the molar value. Counter-ions that a name gives are not always drawn.

T1 sequence (P98170 whole entry): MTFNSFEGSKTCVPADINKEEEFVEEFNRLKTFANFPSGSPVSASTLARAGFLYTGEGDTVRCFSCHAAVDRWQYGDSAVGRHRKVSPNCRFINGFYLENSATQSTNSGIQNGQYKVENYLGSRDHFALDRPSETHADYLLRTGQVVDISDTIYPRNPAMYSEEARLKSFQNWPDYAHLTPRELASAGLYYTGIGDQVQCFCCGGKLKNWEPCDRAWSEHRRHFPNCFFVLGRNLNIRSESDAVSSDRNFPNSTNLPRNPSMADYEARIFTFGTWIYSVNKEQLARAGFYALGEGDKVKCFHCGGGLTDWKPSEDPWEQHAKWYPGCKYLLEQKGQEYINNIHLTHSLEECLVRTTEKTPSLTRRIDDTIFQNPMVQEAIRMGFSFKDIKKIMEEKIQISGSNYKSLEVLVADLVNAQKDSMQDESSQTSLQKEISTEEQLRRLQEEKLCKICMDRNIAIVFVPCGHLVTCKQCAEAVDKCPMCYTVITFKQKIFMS

Regarding `CN[C@@H](C)C(=O)N[C@H](C(=O)N1CCN(C(=O)c2cc3cc(F)ccc3n2CC(=O)NCCOCCNC(=O)Cn2c(C(=O)N3CCN(C(=O)[C@@H](NC(=O)[C@H](C)NC)C4CCCCC4)CC3)cc3cc(F)ccc32)CC1)C1CCCCC1` [Example 87, (S)—N—((S)-1-Cyclohexyl-2-(4-(1-(2-((2-(2-(2-(2-(4-((R)-2-cyclohexyl-2-((R)-2-(methylamino)propanamide)acetyl)piperazine-1-carbonyl)-5-fluoro-1H-indol-1-yl)acetamide)ethoxy)ethyl)amino)-2-oxoethyl)-5-fluoro-1H-indole-2-carbonyl)piperazin-1-yl)-2-oxoethyl)-2-(methylamino)propanamide bistrifluoroacetate], the “remaining protein rate (%) XIAP” value at XIAP is “C (50%<C≤75%)”. In addition, the inhibition at 3 µM in assay [1] was above 75%.

For `CN[C@@H](C)C(=O)N[C@H](C(=O)N1CCN(C(=O)c2c(C(=O)NCCOCCOCCNC(=O)c3c(C(=O)N4CCN(C(=O)[C@@H](NC(=O)[C@H](C)NC)C5CCCCC5)CC4)n(C)c4ccc(F)cc34)c3cc(F)ccc3n2C)CC1)C1CCCCC1` [Example 86, N,N′-((Ethan-1,2-diylbis(oxy))bis(ethan-2,1-diyl))bis(2-(4-((S)-2-cyclohexyl-2-((S)-2-(methylamino)propanamido)acetyl)piperazine-1-carbonyl)-5-fluoro-1-methyl-1H-indole-3-carboxamide) bistrifluoroacetate], the “remaining protein rate (%) XIAP” value at XIAP is given as “C (50%<C≤75%)”. Also, in assay [1], the pIC50 is above 6.52 and the inhibition at 3 µM was above 75%.

For `CN[C@@H](C)C(=O)N[C@H](C(=O)N1CCN(C(=O)c2c(C(=O)NCCOCCOCCN3CCN(c4cc(Nc5ncc(C(=O)Nc6c(C)cccc6Cl)s5)nc(C)n4)CC3)c3cc(F)c(F)cc3n2C)CC1)C1CCCCC1` [Example 81, N-(2-Chloro-6-methylphenyl)-2-((6-(4-(2-(2-(2-(2-(4-((S)-2-cyclohexyl-2-((S)-2-(methylamino)propanamido)acetyl)piperazine-1-carbonyl)-5,6-difluoro-1-methyl-1H-indole-3-carboxamido)ethoxy)ethoxy)ethyl)piperazin-1-yl)-2-methylpyrimidin-4-yl)amino)thiazole-5-carboxamide trifluoroacetate], the “remaining protein rate (%) BCR-ABL” value at BCR-ABL was “D (D>75%)”. In addition, the pIC50 in assay [1] is 5.52 to 6.52.

As to `CN[C@@H](C)C(=O)N[C@H](C(=O)N1CCN(C(=O)c2c(C(=O)NCCOCCN3CCN(c4cc(Nc5ncc(C(=O)Nc6c(C)cccc6Cl)s5)nc(C)n4)CC3)c3cc(F)c(F)cc3n2C)CC1)C1CCCCC1` [Example 80, N-(2-Chloro-6-methylphenyl)-2-((6-(4-(2-(2-(2-(4-((S)-2-cyclohexyl-2-((S)-2-(methylamino)propanamide)acetyl)piperazine-1-carbonyl)-5,6-difluoro-1-methyl-1H-indole-3-carboxamido)ethoxy)ethyl)piperazin-1-yl)-2-methylpyrimidin-4-yl)amino)thiazole-5-carboxamide], on BCR-ABL, the “remaining protein rate (%) BCR-ABL” value is “C (50%<C≤75%)”. In addition, the pIC50 in assay [1] was 5.52 to 6.52.

Regarding `CN[C@@H](C)C(=O)N[C@H](C(=O)N1CCN(C(=O)c2c(C(=O)N(C)CCOC)c3ccc(OC)cc3n2C)CC1)C1CCCCC1` [Example 26, 2-(4-((S)-2-Cyclohexyl-2-((S)-2-(methylamino)propanamido)acetyl)piperazine-1-carbonyl)-6-methoxy-N-(2-methoxyethyl)-N,1-dimethyl-1H-indole-3-carboxamide Hydrochloride], in assay [1], the inhibition at 3 µM lay in the range of 50 to 75%.
